The structures appear in SMILES notation.

For data set [1] the following is noted: single oral administration of 200 mg; cited from earlier work.
Data set [2] deals with platelets in whole blood (ADP pathway). Briefly: DBCM platelet assay (ADP pathway), activation residual rate AR3 by Method 3. The settings on record: citrated whole blood of healthy volunteers spiked with ticagrelor; final blood concentration 400 nM and above; ADP 13 μM; DCS74 feature value. Type of data set: cell-based, human. The method, then: In this experiment, the operating sequence of the dielectric coagulation analyzer experimental machine developed for dielectric blood coagulometry (also simply herein referred to as “DBCM”) was used with some modifications to realize a platelet assay.
When the measurement is started, 200 μL of citric acid-added blood sample is dispensed into a disposable cartridge into which a reagent(s) has been introduced in advance, and the mixture is mixed and stirred by automatic pipetting with a suction volume of about 200 μL. […]
Immediately after the completion of stirring, the dielectric permittivity measurement was started, and a change in the blood dielectric permittivity associated with blood coagulation was recorded at a measurement frequency of from 10 kHz to 10 MHz, a measurement time of 60 min, and a measurement time interval of 5 sec. […]
Meanwhile, in Methods 1 and 2, the response upper limit was obtained when the measurement was conducted without adding any agonist experimentally. […] In this regard, however, the ideal measured value should be obtained when 215 mM lyophilized calcium chloride reagent without any agonist is used and the number of stirring operations is changed to 5 times which is the minimum so as to prevent some of the platelets from being activated and reacted due to stirring-induced shear stress. […]

As to `CCCSc1nc(N[C@@H]2C[C@H]2c2ccc(F)c(F)c2)c2nnn([C@@H]3C[C@H](OCCO)[C@@H](O)[C@H]3O)c2n1` [ticagrelor], the maximum plasma concentration in data set [1] is reported as 923 ng/mL. In addition, the “platelet activation residual rate AR3 (%)” value in data set [2] was not above 30%.

These data come from patent US11982667B2, “Platelet aggregation capacity analyzer, analysis method, and analysis system using complex dielectric permittivity” (SONY CORPORATION, priority 2018, dated 2024).
